Assay results: patent EP0504184B1, “ACTIVE AGENT AGAINST RETROVIRUS GROUP VIRUSES, COMPOSITIONS CONTAINING SAME AND THEIR USE” (PREVISAN S.A., priority 1989, dated 1991)

Legend:
cellules Supt-1 = assay: Toxicity test of chloroazodine towards Supt-1 cells (cell viability); type: cell-based, humaine
Description: (§1) Ces essais comprennent comme matériel de départ : • de la N, N'-dichloroazodicarbonamidine (chloroazodine) à 95 % pure. La pureté a été examinée par chromatographie en couche mince et par un test de carbone-hydrogène (v. BRAZ G.I. et cons., J. Applied Chem. (USSR) 17,565-9 (1944)). • un surnageant de cultures de cellules (Molt-3) continuellement productrices de virus VIH-1. Le surnageant viral utilisé a une activité de transcriptase inverse de 1 x 10^6 cpm/ml. • des cellules d'une lignée T humaine continue de phénotype T4 (Supt-1) cultivée en milieu RPMI, additionné de 10 % de sérum de veau foetal et de 1 % de glutamine.
Essai de toxicité de la chloroazodine vis-à-vis des cellules Supt-1.
La chloroazodine à la dilution de 1/500, ce qui correspond à 2 mg/ml, est toxique pour les cellules Supt-1.

virus VIH-1 = assay: Infectivity of pretreated HIV-1 virus for the Supt-1 line (p24 antigen in cell lysates, optical density; phase-contrast microscopy); type: cell-based; settings: for multiplication du virus VIH-1 dans les cellules Supt-1: after 1, 10 and 30 minutes incubation with the agent at ordinary temperature; for Mesure d'infectivité du virus VIH-1 (D.O.492): p24 in Supt-1 lysates
Description: as §1
L' efficacité de la chloroazodine va être étudiée à deux niveaux : • a) action sur l'infectivité du virus VIH-1 pour la lignée Supt-1. • b) action sur l'intégration du génome viral dans l'ADN chromosomial des cellules Supt-1.
On fait incuber des préparations virales de VIH-1 à haut titre en présence de dilutions de chloroazodine de 1/1500 et de 1/3000 et pendant différents temps d'incubation. Pendant 30 minutes à 37°C, on traite préalablement les cellules Supt-1 par 10 µg/ml de polybrène, puis on les inocule avec les préparations de virus traités. On prévoit comme témoins, des cellules non inoculées, et des cellules inoculées par une préparation de virus non traités.
On détermine ensuite l'infectivité, à chaque passage cellulaire, de ces préparations en suivant la production virale (mesure de l'antigène p24 exprimé) dans les lysats cellulaires solubilisés des cellules Supt-1 examinées.
Les mesures du pouvoir infectieux du virus VIH-1 après incubation avec de la chloroazodine ressortent des tableaux 1 à 3 suivants, ainsi que des figures 1 à 3 qui correspondent aux tableaux 1 à 3. Sur ces figures, on trouve en ordonnée la densité optique (D.O.) et en abscisse le nombre de jours après l'infection. Le trait plein représente le témoin non traite, le trait interrompu la dilution de 1/1500 de chloroazodine, et le trait pointillé la dilution de 1/3000 de chloroazodine.

lymphocytes normaux = type: cell-based, humains
Description: (§2) Des lymphocytes humains provenant du sang périphérique de donneurs séro-négatifs (PBL) sont infectés par du VIH-1 provenant du surnageant de cellules Molt-3, c'est-à-dire de cellules continuellement productrices de ces virus.
(§3) Quatre populations cellulaires sont étudiées quant à leur mortalité : • 1 des lymphocytes normaux en culture (Témoin A). • 2 des lymphocytes normaux en présence de chloroazodine 1/3000. • 3 des lymphocytes infectés non traités (Témoin B). • 4 des lymphocytes infectés, en présence de chloroazodine 1/3000. Tableau 4

lymphocytes infectés = assay: Mortality of HIV-1 infected human peripheral blood lymphocytes with chloroazodine; type: cell-based, humains; settings: for Nombre de cellules mortes / Nombre de cellules vivantes: HIV-1 infected lymphocytes + chloroazodine 1/3000
Description: as §2
Au jour 8 de l'infection, celle-ci est contrôlée par l'expression de l'antigène p 24 (Test Elisa, voir Exemple 4).
as §3

[1] = tested on: virus VIH-1 dans des cellules Molt-3 B; assay: p24 antigen in culture supernatants of treated Molt-3 B cells continuously producing HIV (optical density); type: cell-based; settings: for Mesure du pouvoir infectieux des virus VIH-1 dans des cellules Molt-3 B (densité optique): p24 in supernatant
Description: Des cellules Molt-3 B, continuellement productrices de virus VIH, ont été traitées par de la chloroazodine à des concentrations de 1/1500 et 1/3000 pendant des périodes de 1 minute, 10 minutes et 30 minutes.
Les antigènes p 24 exprimes dans les surnageants de culture ont été évalués après 24 h., 48 h., 72 h. et 96 h.
Pour mesurer cet effet en contournant la toxicité du produit pour les cellules infectées, on a choisi de prendre un nombre cellulaire extraordinairement élevé de manière à conserver un nombre très faible, mais suffisant, de cellules vivantes après 96 h. Tableau 5

différences entre les témoins A et B et les lymphocytes sains + chloroazodine (lymphocytes normaux): non significatives
SMILES: NC(N=NC(N)=NCl)=NCl [chloroazodine, N, N'-dichloroazodicarbonamidine]
toxicité vis-à-vis des cellules Supt-1 (cellules Supt-1; dilution 1/500 (2 mg/ml)): toxique
viabilité cellulaire (cellules Supt-1) (cellules Supt-1; dilution 1/1500 (660 µg/ml)): ne diminuent par contre pas la viabilité cellulaire
viabilité cellulaire (cellules Supt-1) (cellules Supt-1; dilution 1/3000 (330 µg/ml)): ne diminuent par contre pas la viabilité cellulaire
multiplication du virus VIH-1 dans les cellules Supt-1 (virus VIH-1; dilution 1/1500): empêche totalement le virus VIH-1 de se multiplier
multiplication du virus VIH-1 dans les cellules Supt-1 (virus VIH-1; dilution 1/3000): empêche totalement le virus VIH-1 de se multiplier
temps pour l'éradication totale des virus (virus VIH-1; low concentration, in organic medium, conclusion from examples 3 to 5): ≤ 1 min
effet cytopathogène (virus VIH-1; phase-contrast microscopy, Supt-1 cells inoculated with virus pretreated with chloroazodine (control virus: syncytia from day 14)): aucun effet cytopathogène
Mesure d'infectivité du virus VIH-1 (D.O.492) (virus VIH-1; virus incubated 1 minute with chloroazodine 1/1500, 10 days after infection): 0,174 ± 0,002
Mesure d'infectivité du virus VIH-1 (D.O.492) (virus VIH-1; virus incubated 1 minute with chloroazodine 1/1500, 14 days after infection): 0,175 ± 0,016
Mesure d'infectivité du virus VIH-1 (D.O.492) (virus VIH-1; virus incubated 1 minute with chloroazodine 1/1500, 17 days after infection): 0,152 ± 0,016
Mesure d'infectivité du virus VIH-1 (D.O.492) (virus VIH-1; virus incubated 1 minute with chloroazodine 1/1500, 21 days after infection): 0,183 ± 0,026
Mesure d'infectivité du virus VIH-1 (D.O.492) (virus VIH-1; virus incubated 1 minute with chloroazodine 1/1500, 24 days after infection): 0,180 ± 0,008
Mesure d'infectivité du virus VIH-1 (D.O.492) (virus VIH-1; virus incubated 1 minute with chloroazodine 1/3000, 10 days after infection): 0,173 ± 0,009
Mesure d'infectivité du virus VIH-1 (D.O.492) (virus VIH-1; virus incubated 1 minute with chloroazodine 1/3000, 14 days after infection): 0,149 ± 0,002
Mesure d'infectivité du virus VIH-1 (D.O.492) (virus VIH-1; virus incubated 1 minute with chloroazodine 1/3000, 17 days after infection): 0,172 ± 0,016
Mesure d'infectivité du virus VIH-1 (D.O.492) (virus VIH-1; virus incubated 1 minute with chloroazodine 1/3000, 21 days after infection): 0,202 ± 0,003
Mesure d'infectivité du virus VIH-1 (D.O.492) (virus VIH-1; virus incubated 1 minute with chloroazodine 1/3000, 24 days after infection): 0,166 ± 0,004
Mesure d'infectivité du virus VIH-1 (D.O.492) (virus VIH-1; virus incubated 10 minutes with chloroazodine 1/1500, 10 days after infection): 0,146 ± 0,004
Mesure d'infectivité du virus VIH-1 (D.O.492) (virus VIH-1; virus incubated 10 minutes with chloroazodine 1/1500, 14 days after infection): 0,151 ± 0,006
Mesure d'infectivité du virus VIH-1 (D.O.492) (virus VIH-1; virus incubated 10 minutes with chloroazodine 1/1500, 17 days after infection): 0,165 ± 0,013
Mesure d'infectivité du virus VIH-1 (D.O.492) (virus VIH-1; virus incubated 10 minutes with chloroazodine 1/1500, 21 days after infection): 0,188 ± 0,016
Mesure d'infectivité du virus VIH-1 (D.O.492) (virus VIH-1; virus incubated 10 minutes with chloroazodine 1/1500, 24 days after infection): 0,180 ± 0,008
Mesure d'infectivité du virus VIH-1 (D.O.492) (virus VIH-1; virus incubated 10 minutes with chloroazodine 1/3000, 10 days after infection): 0,202 ± 0,021
Mesure d'infectivité du virus VIH-1 (D.O.492) (virus VIH-1; virus incubated 10 minutes with chloroazodine 1/3000, 14 days after infection): 0,146 ± 0,010
Mesure d'infectivité du virus VIH-1 (D.O.492) (virus VIH-1; virus incubated 10 minutes with chloroazodine 1/3000, 17 days after infection): 0,157 ± 0,005
Mesure d'infectivité du virus VIH-1 (D.O.492) (virus VIH-1; virus incubated 10 minutes with chloroazodine 1/3000, 21 days after infection): 0,182 ± 0,018
Mesure d'infectivité du virus VIH-1 (D.O.492) (virus VIH-1; virus incubated 10 minutes with chloroazodine 1/3000, 24 days after infection): 0,166 ± 0,004
Mesure d'infectivité du virus VIH-1 (D.O.492) (virus VIH-1; virus incubated 30 minutes with chloroazodine 1/1500, 10 days after infection): 0,185 ± 0,008
Mesure d'infectivité du virus VIH-1 (D.O.492) (virus VIH-1; virus incubated 30 minutes with chloroazodine 1/1500, 14 days after infection): 0,142 ± 0,010
Mesure d'infectivité du virus VIH-1 (D.O.492) (virus VIH-1; virus incubated 30 minutes with chloroazodine 1/1500, 17 days after infection): 0,176 ± 0,004
Mesure d'infectivité du virus VIH-1 (D.O.492) (virus VIH-1; virus incubated 30 minutes with chloroazodine 1/1500, 21 days after infection): 0,194 ± 0,007
Mesure d'infectivité du virus VIH-1 (D.O.492) (virus VIH-1; virus incubated 30 minutes with chloroazodine 1/1500, 24 days after infection): 0,163 ± 0,003
Mesure d'infectivité du virus VIH-1 (D.O.492) (virus VIH-1; virus incubated 30 minutes with chloroazodine 1/3000, 10 days after infection): 0,205 ± 0,013
Mesure d'infectivité du virus VIH-1 (D.O.492) (virus VIH-1; virus incubated 30 minutes with chloroazodine 1/3000, 14 days after infection): 0,176 ± 0,005
Mesure d'infectivité du virus VIH-1 (D.O.492) (virus VIH-1; virus incubated 30 minutes with chloroazodine 1/3000, 17 days after infection): 0,174 ± 0,015
Mesure d'infectivité du virus VIH-1 (D.O.492) (virus VIH-1; virus incubated 30 minutes with chloroazodine 1/3000, 21 days after infection): 0,169 ± 0,000
Mesure d'infectivité du virus VIH-1 (D.O.492) (virus VIH-1; virus incubated 30 minutes with chloroazodine 1/3000, 24 days after infection): 0,172 ± 0,031
Nombre de cellules mortes (lymphocytes infectés; duration 1 min): 31
Nombre de cellules vivantes (lymphocytes infectés; duration 1 min): 17
Nombre de cellules mortes (lymphocytes infectés; duration 10 min): 34
Nombre de cellules vivantes (lymphocytes infectés; duration 10 min): 14
Nombre de cellules mortes (lymphocytes infectés; duration 30 min): 39
Nombre de cellules vivantes (lymphocytes infectés; duration 30 min): 21
Nombre de cellules mortes (lymphocytes infectés; duration 180 min): 20
Nombre de cellules vivantes (lymphocytes infectés; duration 180 min): 8
toxicité sélective pour des cellules infectées (lymphocytes infectés; conclusion from comparison of infected and normal lymphocytes, chloroazodine 1/3000): toxicité sélective de la chloroazodine pour des cellules infectées
Mesure du pouvoir infectieux des virus VIH-1 dans des cellules Molt-3 B (densité optique) ([1]; chloroazodine 1/1500, treatment 1 min, 24 h. after treatment): 0,175
Mesure du pouvoir infectieux des virus VIH-1 dans des cellules Molt-3 B (densité optique) ([1]; chloroazodine 1/1500, treatment 1 min, 48 h. after treatment): 0,175
Mesure du pouvoir infectieux des virus VIH-1 dans des cellules Molt-3 B (densité optique) ([1]; chloroazodine 1/1500, treatment 1 min, 72 h. after treatment): 0,167
Mesure du pouvoir infectieux des virus VIH-1 dans des cellules Molt-3 B (densité optique) ([1]; chloroazodine 1/1500, treatment 10 min, 24 h. after treatment): 0,182
Mesure du pouvoir infectieux des virus VIH-1 dans des cellules Molt-3 B (densité optique) ([1]; chloroazodine 1/1500, treatment 10 min, 48 h. after treatment): 0,181
Mesure du pouvoir infectieux des virus VIH-1 dans des cellules Molt-3 B (densité optique) ([1]; chloroazodine 1/1500, treatment 10 min, 72 h. after treatment): 0,145
Mesure du pouvoir infectieux des virus VIH-1 dans des cellules Molt-3 B (densité optique) ([1]; chloroazodine 1/1500, treatment 30 min, 24 h. after treatment): 0,194
Mesure du pouvoir infectieux des virus VIH-1 dans des cellules Molt-3 B (densité optique) ([1]; chloroazodine 1/1500, treatment 30 min, 48 h. after treatment): 0,155
Mesure du pouvoir infectieux des virus VIH-1 dans des cellules Molt-3 B (densité optique) ([1]; chloroazodine 1/1500, treatment 30 min, 72 h. after treatment): 0,173
Mesure du pouvoir infectieux des virus VIH-1 dans des cellules Molt-3 B (densité optique) ([1]; chloroazodine 1/3000, treatment 1 min, 24 h. after treatment): 0,247
Mesure du pouvoir infectieux des virus VIH-1 dans des cellules Molt-3 B (densité optique) ([1]; chloroazodine 1/3000, treatment 1 min, 48 h. after treatment): 0,154
Mesure du pouvoir infectieux des virus VIH-1 dans des cellules Molt-3 B (densité optique) ([1]; chloroazodine 1/3000, treatment 1 min, 72 h. after treatment): 0,170
Mesure du pouvoir infectieux des virus VIH-1 dans des cellules Molt-3 B (densité optique) ([1]; chloroazodine 1/3000, treatment 10 min, 24 h. after treatment): 0,180
Mesure du pouvoir infectieux des virus VIH-1 dans des cellules Molt-3 B (densité optique) ([1]; chloroazodine 1/3000, treatment 10 min, 48 h. after treatment): 0,176
Mesure du pouvoir infectieux des virus VIH-1 dans des cellules Molt-3 B (densité optique) ([1]; chloroazodine 1/3000, treatment 10 min, 72 h. after treatment): 0,152
Mesure du pouvoir infectieux des virus VIH-1 dans des cellules Molt-3 B (densité optique) ([1]; chloroazodine 1/3000, treatment 30 min, 24 h. after treatment): 0,211
Mesure du pouvoir infectieux des virus VIH-1 dans des cellules Molt-3 B (densité optique) ([1]; chloroazodine 1/3000, treatment 30 min, 48 h. after treatment): 0,162
Mesure du pouvoir infectieux des virus VIH-1 dans des cellules Molt-3 B (densité optique) ([1]; chloroazodine 1/3000, treatment 30 min, 72 h. after treatment): 0,176
production de VIH par des cellules infectées ([1]; conclusion of example 7, Molt-3 B cells, chloroazodine 1/1500 and 1/3000): capable d'empêcher la production de VIH par des cellules infectées
